What was measured:
[1] = system: reconstructed human epidermis (RhE) model (SkinEthic-RHE); assay: Skin irritation test, reconstructed human epidermis model, MTT cell viability; format: cell-based
Protocol: A skin irritation test was performed in accordance with OECD Test Guidelines (No. 439), and SKINETHIC SKIN IRRITATION TEST, which is a TEST METHOD FOR THE PREDICTION OF ACUTE SKIN IRRITATION OF CHEMICALS and is a protocol published by the European Centre for the Validation of Alternative Methods (ECVAM). […] The cell viability of the RhE model was measured by an MTT method. In the MTT method, the cell viability is measured by quantitatively determining blue formazan utilizing a property that MTT (3-(4,5-dimethylthiazol-2-yl)-2,5-diphenyltetrazolium bromide, thiazolyl blue), which is a vital staining dye, is reduced to blue formazan by enzymatic reaction of viable cells. […]
After exposing the test sample for 42 minutes, the test sample was immediately removed from the epidermis model by a washing operation and cultured in fresh growth medium for an additional 42 hours. […] Thereafter, the epidermis model was immersed in isopropanol for 2 hours to extract blue formazan in the epidermis model, and the absorbance at 570 nm of the extraction liquid was measured with a microplate reader. The same treatment was performed on the epidermis model exposed to the negative control and the positive control to measure the absorbance. […]

[2] = In vitro skin sensitization test (DPRA method) (OECD TG442C); format: biochemical
[3] = In vitro phototoxicity test (OECD TG432); format: cell-based
[4] = Human patch test; details: in vivo

O=c1[nH]c2nn[nH]c(=O)c2[nH]1 [AOH, 3H-imidazo[4,5-d][1,2,3]triazine-4,6(5H,7H)-dione]
cell viability of the skin model ([1]; 42 min exposure, 42 h post-culture, MTT, PBS (−) negative control as 100%): 100% | skin irritation determination ([1]; RhE model, OECD TG 439): non-irritating | toxicity in in vitro skin sensitization test (DPRA method) [2]: toxicity was not recognized | toxicity in in vitro phototoxicity test [3]: toxicity was not recognized | toxicity in human patch test [4]: toxicity was not recognized

From patent US12527801B2, “Cell activator of animal cell” (Vitamin C60 BioResearch Corporation, priority 2019, dated 2026)
